Test results published in ChEMBL document CHEMBL5728971, “Small molecule inhibitors of lactate dehydrogenase and methods of use thereof” (2022).

Assay: Biochemical Assay: Test compounds were placed in a Greiner Bio-One (Monroe, N.C.) 1536-well black solid bottom assay plate. 200 millimolar (mM) Tris HCl, pH 7.4, 100 micromolar (μM) EDTA and 0.01% TWEEN-20™, final concentration, was used as the assay buffer. The LDHA reagent was 2 nanomolar (nM) Human LDHA (Meridian Life Science, Inc., Memphis, Tenn.), final concentration, in assay buffer.

| Structure (SMILES) | IC50 |
| --- | --- |
| O=C(O)c1csc(-n2nc(-c3ccccc3)cc2C(F)(F)F)n1 | in the range around 29 µM |
| O=C(O)c1csc(-n2nc(-c3ccccc3)cc2O)n1 | > 57 µM |
| NS(=O)(=O)c1ccc(Oc2c(-c3ccccc3)nn(-c3nc(C(=O)O)cs3)c2C2CC2)cc1 | < 0.1 µM |
| N#Cc1c(Cc2ccc(S(N)(=O)=O)cc2)c(-c2ccccc2)nn1-c1nc(C(=O)O)cs1 | < 0.1 µM |
| O=C(O)c1csc(-n2nc(-c3ccc(F)cc3F)cc2O)n1 | > 57 µM |
| NC(=O)c1ccc(Cc2c(-c3cccc(-c4ccccc4)c3)nn(-c3nc(C(=O)O)cs3)c2O)cc1 | > 57 µM |
| Cc1c(Cc2ccc(S(N)(=O)=O)cc2)c(-c2ccccc2)nn1-c1nc(C(=O)O)cs1 | < 0.1 µM |
| NS(=O)(=O)c1ccc(Cc2cn(-c3nc(C(=O)O)cs3)nc2-c2ccc(F)c(F)c2)cc1 | < 0.1 µM |
| CNS(=O)(=O)c1ccc(Cc2c(-c3cccc(-c4ccccc4)c3)nn(-c3nc(C(=O)O)cs3)c2O)cc1 | > 57 µM |
| NS(=O)(=O)c1ccc(NCc2cn(-c3nc(C(=O)O)cs3)nc2-c2ccccc2)cc1 | > 57 µM |
| NS(=O)(=O)c1ccc(Cc2cn(-c3nc(C(=O)O)cs3)nc2-c2ccccc2)cc1 | < 0.1 µM |
| NS(=O)(=O)c1ccc(Cc2c(-c3ccccc3)nn(-c3nc(C(=O)O)cs3)c2-c2ccccc2)cc1 | < 0.1 µM |
| O=C(O)c1csc(-n2nc(-c3cc(F)cc(F)c3)cc2O)n1 | > 57 µM |
| O=C(O)c1ccc(Cc2c(-c3cccc(-c4ccccc4)c3)nn(-c3nc(C(=O)O)cs3)c2O)cc1 | > 57 µM |
| NC(=O)c1csc(-n2nc(-c3cccc(-c4ccccc4)c3)c(Cc3ccc(S(N)(=O)=O)cc3)c2O)n1 | > 57 µM |
| NS(=O)(=O)c1ccc(Oc2cn(-c3nc(C(=O)O)cs3)nc2-c2ccccc2)cc1 | < 0.1 µM |
| O=C(O)c1csc(-n2nc(-c3ccc(F)c(F)c3)c(Cc3ccccc3)c2O)n1 | > 57 µM |
| O=C(O)c1csc(-n2nc(-c3cccc(-c4ccccc4F)c3)cc2O)n1 | > 57 µM |
| NS(=O)(=O)c1ccc(Cc2c(C3CCCC3)nn(-c3nc(C(=O)O)cs3)c2-c2ccccc2)cc1 | in the range around 29 µM |
| CCOC(=O)c1csc(-n2nc(-c3cccc(-c4ccccc4)c3)c(Cc3ccc(S(N)(=O)=O)cc3F)c2C2CC2)n1 | > 57 µM |
| COc1cccc(-c2cc(-c3nn(-c4nc(C(=O)O)cs4)c(C(F)(F)F)c3Cc3ccc(S(N)(=O)=O)cc3)ccc2F)c1 | < 0.1 µM |
| NS(=O)(=O)c1ccc(Cc2cn(-c3nc(Br)cs3)nc2-c2ccccc2)cc1 | in the range around 29 µM |
| NS(=O)(=O)c1ccc(Cc2c(-c3ccc(F)c(-c4ccc(F)cc4)c3)nn(-c3nc(C(=O)O)cs3)c2C(F)(F)F)cc1 | < 0.1 µM |
| Cc1ccc(-c2cc(-c3nn(-c4nc(C(=O)O)cs4)c(C(F)(F)F)c3Cc3ccc(S(N)(=O)=O)cc3)ccc2F)cc1 | < 0.1 µM |
| Cc1noc(C)c1-c1cc(-c2nn(-c3nc(C(=O)O)cs3)c(CC3CC3)c2Cc2ccc(S(N)(=O)=O)cc2F)ccc1F | < 0.1 µM |
| NS(=O)(=O)c1ccc(Cc2c(-c3ccc(F)c(-c4cccc(F)c4)c3)nn(-c3nc(C(=O)O)cs3)c2C(F)(F)F)cc1 | < 0.1 µM |
| COc1cccc(-c2cc(-c3nn(-c4nc(C(=O)O)cs4)c(CC4CC4)c3Cc3ccc(S(N)(=O)=O)cc3)ccc2F)c1 | < 0.1 µM |

Further lines, results first:

| IC50 | Structure (SMILES) |
| --- | --- |
| < 0.1 µM | Cc1csc(-c2cc(-c3nn(-c4nc(C(=O)O)cs4)c(CC4CC4)c3Cc3ccc(S(N)(=O)=O)c(F)c3)ccc2F)c1 |
| < 0.1 µM | Cc1ccc(-c2cc(-c3nn(-c4nc(C(=O)O)cs4)c(CC4CC4)c3Cc3ccc(S(N)(=O)=O)c(F)c3)ccc2F)o1 |
| < 0.1 µM | Cc1csc(-c2cc(-c3nn(-c4nc(C(=O)O)cs4)c(CC4CC4)c3Cc3ccc(S(N)(=O)=O)cc3F)ccc2F)c1 |
| > 57 µM | Cn1cc(-c2cc(-c3c(Cc4ccc(S(N)(=O)=O)c(F)c4)c(CC4CC4)nn3-c3nc(C(=O)O)cs3)ccc2F)cn1 |
| < 0.1 µM | Cc1ccc(-c2cc(-c3nn(-c4nc(C(=O)O)cs4)c(CC4CC4)c3Cc3ccc(S(N)(=O)=O)c(F)c3)ccc2F)s1 |
| < 0.1 µM | Cc1ccc(-c2cc(-c3nn(-c4nc(C(=O)O)cs4)c(CC4CC4)c3Cc3ccc(S(N)(=O)=O)cc3F)ccc2F)s1 |
| in the range around 29 µM | CCOC(=O)c1csc(-n2nc(-c3ccc(F)c(-c4ccc(F)cc4)c3)c(Cc3ccc(S(N)(=O)=O)c(F)c3)c2C2CC2)n1 |
| < 0.1 µM | NS(=O)(=O)c1ccc(Cc2c(-c3ccc(F)c(-c4cccs4)c3)nn(-c3nc(C(=O)O)cs3)c2CC2CC2)cc1F |
| > 57 µM | Cc1noc(C)c1-c1cc(-c2c(Cc3ccc(S(N)(=O)=O)cc3F)c(CC3CC3)nn2-c2nc(C(=O)O)cs2)ccc1F |
| in the range around 29 µM | NS(=O)(=O)c1ccc(Cc2c(CC3CC3)nn(-c3nc(C(=O)O)cs3)c2-c2ccc(F)c(-c3cccc(F)c3)c2)cc1 |
| < 0.1 µM | Cc1cnc(-c2cc(-c3nn(-c4nc(C(=O)O)cs4)c(CC4CC4)c3Cc3ccc(S(N)(=O)=O)c(F)c3)ccc2F)s1 |
| > 57 µM | COc1cccc(-c2cc(-c3c(Cc4ccc(S(N)(=O)=O)cc4)c(CC4CC4)nn3-c3nc(C(=O)O)cs3)ccc2F)c1 |
| > 57 µM | Cc1noc(C)c1-c1cc(-c2c(Cc3ccc(S(N)(=O)=O)c(F)c3)c(CC3CC3)nn2-c2nc(C(=O)O)cs2)ccc1F |
| > 57 µM | CCOC(=O)c1csc(-n2nc(-c3ccc(F)c(-c4cccc(OC)c4)c3)c(Cc3ccc(S(N)(=O)=O)c(F)c3)c2C2CC2)n1 |
| > 57 µM | Cc1csc(-c2cc(-c3c(Cc4ccc(S(N)(=O)=O)c(F)c4)c(CC4CC4)nn3-c3nc(C(=O)O)cs3)ccc2F)c1 |
| < 0.1 µM | Cn1cc(-c2cc(-c3nn(-c4nc(C(=O)O)cs4)c(CC4CC4)c3Cc3ccc(S(N)(=O)=O)cc3F)ccc2F)cn1 |
| < 0.1 µM | NS(=O)(=O)c1ccc(Cc2c(-c3ccc(F)c(-c4ccc(F)cc4)c3)nn(-c3nc(C(=O)O)cs3)c2C2CC2)cc1F |
| in the range around 29 µM | CCOC(=O)c1csc(-n2nc(-c3ccc(F)c(-c4cccc(F)c4)c3)c(Cc3ccc(S(N)(=O)=O)c(F)c3)c2C2CC2)n1 |
| < 0.1 µM | NS(=O)(=O)c1ccc(Cc2c(-c3ccc(F)c(-c4cccc(F)c4)c3)nn(-c3nc(C(=O)O)cs3)c2CC2CC2)cc1 |
| > 57 µM | Cc1csc(-c2cc(-c3c(Cc4ccc(S(N)(=O)=O)cc4F)c(CC4CC4)nn3-c3nc(C(=O)O)cs3)ccc2F)c1 |
| in the range around 29 µM | CCOC(=O)c1csc(-n2nc(-c3ccc(F)c(-c4ccc(C)cc4)c3)c(Cc3ccc(S(N)(=O)=O)c(F)c3)c2C2CC2)n1 |
| > 57 µM | Cc1ccc(-c2cc(-c3c(Cc4ccc(S(N)(=O)=O)cc4F)c(CC4CC4)nn3-c3nc(C(=O)O)cs3)ccc2F)s1 |
| < 0.1 µM | Cc1ccc(-c2cc(-c3nn(-c4nc(C(=O)O)cs4)c(C4CC4)c3Cc3ccc(S(N)(=O)=O)c(F)c3)ccc2F)cc1 |
| < 0.1 µM | Cc1noc(C)c1-c1cc(-c2nn(-c3nc(C(=O)O)cs3)c(CC3CC3)c2Cc2ccc(S(N)(=O)=O)c(F)c2)ccc1F |
| < 0.1 µM | Cn1cc(-c2cc(-c3nn(-c4nc(C(=O)O)cs4)c(CC4CC4)c3Cc3ccc(S(N)(=O)=O)c(F)c3)ccc2F)cn1 |
| > 57 µM | CCOC(=O)c1csc(-n2nc(-c3ccc(F)c(-c4ccc(C)s4)c3)c(Cc3ccc(S(N)(=O)=O)c(F)c3)c2CC2CC2)n1 |
| < 0.1 µM | Cc1ncc(-c2cc(-c3nn(-c4nc(C(=O)O)cs4)c(CC4CC4)c3Cc3ccc(S(N)(=O)=O)c(F)c3)ccc2F)s1 |
| > 57 µM | Cc1ccc(-c2cc(-c3c(Cc4ccc(S(N)(=O)=O)c(F)c4)c(CC4CC4)nn3-c3nc(C(=O)O)cs3)ccc2F)s1 |
